Assay results as given in ChEMBL document CHEMBL2424635, “Discovery of novel histidine-derived lipo-amino acids: applied in the synthesis of ultra-short antimicrobial peptidomimetics having potent antimicrobial activity, salt resistance and protease stability” (Eur J Med Chem, 2013).
Values after ≈ are worked out from the molar mass of the structure shown. Active and inactive are the calls of the source. No cut-off for these calls is given here.

Columns and labels:
Staphylococcus aureus [1] = experiment: Antibacterial activity against Staphylococcus aureus KCTC 1621 assessed as disruption of cellular structure at 3 x MIC after 1 hr by transmission electron microscopic analysis; type: functional, organism-based
Escherichia coli [2] = experiment: Antibacterial activity against Escherichia coli KCTC 1682 assessed as disruption of cellular structure at 3 x MIC after 1 hr by transmission electron microscopic analysis; type: functional, organism-based
Staphylococcus aureus [3] = experiment: Antibacterial activity against Staphylococcus aureus KCTC 1621 assessed as growth inhibition at 50 ug/ml after 18 to 20 hrs by broth microdilution method in presence of trypsin; type: functional, organism-based
Escherichia coli [4] = experiment: Antibacterial activity against Escherichia coli KCTC 1682 assessed as growth inhibition at 50 ug/ml after 18 to 20 hrs by broth microdilution method in presence of trypsin; type: functional, organism-based
Staphylococcus aureus [5] = experiment: Antibacterial activity against Staphylococcus aureus KCTC 1621 assessed as growth inhibition after 18 to 20 hrs by broth microdilution method in presence of NaCl; type: functional
Bacillus subtilis [6] = experiment: Antibacterial activity against Bacillus subtilis KCTC 3068 assessed as growth inhibition after 18 to 20 hrs by broth microdilution method in presence of NaCl; type: functional
[7] = tested on: Staphylococcus epidermidis; experiment: Antibacterial activity against Staphylococcus epidermidis KCTC 1917 assessed as growth inhibition after 18 to 20 hrs by broth microdilution method in presence of NaCl; type: functional
Salmonella typhimurium [8] = experiment: Antibacterial activity against Salmonella typhimurium KCTC 1926 assessed as growth inhibition after 18 to 20 hrs by broth microdilution method in presence of NaCl; type: functional, Salmonella enterica subsp. enterica serovar Typhimurium; details: Salmonella enterica
Pseudomonas aeruginosa [9] = experiment: Antibacterial activity against Pseudomonas aeruginosa KCTC 1637 assessed as growth inhibition after 18 to 20 hrs by broth microdilution method in presence of NaCl; type: functional
Escherichia coli [10] = experiment: Antibacterial activity against Escherichia coli KCTC 1682 assessed as growth inhibition after 18 to 20 hrs by broth microdilution method in presence of NaCl; type: functional
Staphylococcus aureus [11] = experiment: Antibacterial activity against methicillin-resistant Staphylococcus aureus CCARM 3095 assessed as growth inhibition after 18 to 20 hrs by broth microdilution method; type: functional
[12] = Hemolytic activity in human RBC assessed as hemoglobin release after 1 hr; type: ADME, cell-based, Erythrocyte; details: red blood cells (RBC)
Staphylococcus aureus [13] = experiment: Antibacterial activity against Staphylococcus aureus KCTC 1621 assessed as growth inhibition after 18 to 20 hrs by broth microdilution method; type: functional
Bacillus subtilis [14] = experiment: Antibacterial activity against Bacillus subtilis KCTC 3068 assessed as growth inhibition after 18 to 20 hrs by broth microdilution method; type: functional
[15] = tested on: Staphylococcus epidermidis; experiment: Antibacterial activity against Staphylococcus epidermidis KCTC 1917 assessed as growth inhibition after 18 to 20 hrs by broth microdilution method; type: functional
Salmonella typhimurium [16] = experiment: Antibacterial activity against Salmonella typhimurium KCTC 1926 assessed as growth inhibition after 18 to 20 hrs by broth microdilution method; type: functional, Salmonella enterica subsp. enterica serovar Typhimurium; details: Salmonella enterica
Pseudomonas aeruginosa [17] = experiment: Antibacterial activity against Pseudomonas aeruginosa KCTC 1637 assessed as growth inhibition after 18 to 20 hrs by broth microdilution method; type: functional
Escherichia coli [18] = experiment: Antibacterial activity against Escherichia coli KCTC 1682 assessed as growth inhibition after 18 to 20 hrs by broth microdilution method; type: functional
Staphylococcus aureus [19] = experiment: Antibacterial activity against methicillin-resistant Staphylococcus aureus CCARM 3089 assessed as growth inhibition after 18 to 20 hrs by broth microdilution method; type: functional
Staphylococcus aureus [20] = experiment: Antibacterial activity against methicillin-resistant Staphylococcus aureus CCARM 3090 assessed as growth inhibition after 18 to 20 hrs by broth microdilution method; type: functional

| SMILES | Activity (Staphylococcus aureus [1]) | Activity (Escherichia coli [2]) | growth inhibition (GI) (Staphylococcus aureus [3]) | growth inhibition (GI) (Escherichia coli [4]) | MIC (Staphylococcus aureus [5]) [µg/mL] | MIC (Bacillus subtilis [6]) [µg/mL] | MIC [7] [µg/mL] | MIC (Salmonella typhimurium [8]) [µg/mL] | MIC (Pseudomonas aeruginosa [9]) [µg/mL] | MIC (Escherichia coli [10]) [µg/mL] | MIC (Staphylococcus aureus [11]) [µg/mL] | HC50 at 1 h [12] [µg/mL] | MIC (Staphylococcus aureus [13]) [µg/mL] | MIC (Bacillus subtilis [14]) [µg/mL] | MIC [15] [µg/mL] | MIC (Salmonella typhimurium [16]) [µg/mL] | MIC (Pseudomonas aeruginosa [17]) [µg/mL] | MIC (Escherichia coli [18]) [µg/mL] | MIC (Staphylococcus aureus [19]) [µg/mL] | MIC (Staphylococcus aureus [20]) [µg/mL] |
| --- | --- | --- | --- | --- | --- | --- | --- | --- | --- | --- | --- | --- | --- | --- | --- | --- | --- | --- | --- | --- |
| CCCCCCCCCCn1c[n+](CCCCCCCCCC)cc1C[C@H](NC(=O)[C@H](CCCNC(=N)N)NC(=O)[C@@H](N)CCCNC(=N)N)C(N)=O | Active | Active | Active | Active | 4 | 4 | 4 | 16 | 8 | 16 | 8 | 116 | 8 | 8 | 8 | 8 | 8 | 16 | 8 | 8 |
| CCCCCCCCCCn1c[n+](CCCCCCCCCC)cc1C[C@H](N)C(=O)N[C@@H](CCCNC(=N)N)C(=O)N[C@@H](CCCNC(=N)N)C(N)=O | Active | Active | Active | Active | 8 | 4 | 4 | 16 | 8 | 16 | 4 | 110 | 4 | 4 | 4 | 8 | 8 | 8 | 4 | 4 |
| CCCCCCCCCCn1cncc1C[C@H](NC(=O)[C@@H](N)CCCNC(=N)N)C(=O)N[C@@H](CCCNC(=N)N)C(N)=O | – | – | Active | Active | 32 | 8 | 32 | > 64 | 16 | > 64 | 8 (≈ 13.2 µM) | > 256 | 4 (≈ 6.59 µM) | 2 (≈ 3.3 µM) | 2 (≈ 3.3 µM) | 32 (≈ 52.7 µM) | 16 (≈ 26.4 µM) | 16 (≈ 26.4 µM) | 8 (≈ 13.2 µM) | 8 (≈ 13.2 µM) |
| CCCCCCCCCCn1c[n+](CCCCCCCCCC)cc1C[C@H](NC(=O)[C@@H](N)CCCNC(=N)N)C(=O)N[C@@H](CCCNC(=N)N)C(N)=O | Active | Active | Active | Active | 4 | 4 | 4 | 16 | 8 | 16 | 4 | 121 | 4 | 4 | 4 | 8 | 8 | 8 | 8 | 4 |
| CCCCCCCn1c[n+](CCCCCCC)cc1C[C@H](NC(=O)[C@@H](N)CCCNC(=N)N)C(=O)N[C@@H](CCCNC(=N)N)C(N)=O | Active | Active | Active | Active | 8 | 8 | 16 | 32 | 8 | > 32 | 4 | > 256 | 4 | 2 | 2 | 8 | 8 | 4 | 4 | 8 |
| CCCCCCCCCCn1c[n+](CCCCCCCCCC)cc1C[C@H](N)C(=O)N[C@@H](CCCNC(=N)N)C(N)=O | – | – | Active | Active | 2 | 2 | 2 | 8 | 8 | 8 | 2 | 49 | 2 | 2 | 2 | 4 | 8 | 4 | 2 | 4 |
| CCCCCCCCCCCCCCn1c[n+](CCCCCCCCCCCCCC)cc1C[C@H](NC(=O)[C@@H](N)CCCNC(=N)N)C(=O)N[C@@H](CCCNC(=N)N)C(N)=O | – | – | – | – | > 64 | > 64 | > 64 | > 64 | > 64 | > 64 | > 64 | > 256 | > 64 | > 64 | > 64 | > 64 | > 64 | > 64 | > 64 | > 64 |
| CC[C@H](C)[C@H](NC(=O)[C@H](CCCCN)NC(=O)[C@H](CCC(=O)O)NC(=O)[C@H](CCCCN)NC(=O)[C@H](CO)NC(=O)[C@H](CCCCN)NC(=O)[C@H](CCCNC(=N)N)NC(=O)[C@H](Cc1ccccc1)NC(=O)[C@H](Cc1ccccc1)NC(=O)[C@H](CC(=O)O)NC(=O)CNC(=O)[C@H](CC(C)C)NC(=O)[C@@H](N)CC(C)C)C(=O)NCC(=O)N[C@@H](CCCCN)C(=O)N[C@@H](CCC(=O)O)C(=O)N[C@@H](Cc1ccccc1)C(=O)N[C@@H](CCCCN)C(=O)N[C@@H](CCCNC(=N)N)C(=O)N[C@H](C(=O)N[C@H](C(=O)N[C@@H](CCC(N)=O)C(=O)N[C@@H](CCCNC(=N)N)C(=O)N[C@H](C(=O)N[C@@H](CCCCN)C(=O)N[C@@H](CC(=O)O)C(=O)N[C@@H](Cc1ccccc1)C(=O)N[C@@H](CC(C)C)C(=O)N[C@@H](CCCNC(=N)N)C(=O)N[C@@H](CC(N)=O)C(=O)N[C@@H](CC(C)C)C(=O)N[C@H](C(=O)N1CCC[C@H]1C(=O)N[C@@H](CCCNC(=N)N)C(=O)N[C@H](C(=O)N[C@@H](CCC(=O)O)C(=O)N[C@@H](CO)C(N)=O)[C@@H](C)O)C(C)C)[C@@H](C)CC)C(C)C)[C@@H](C)CC | – | – | inactive | inactive | > 64 | 16 | > 64 | 32 | 64 | 16 | > 32 | > 256 | 32 (≈ 7.12 µM) | 32 (≈ 7.12 µM) | 16 (≈ 3.56 µM) | 16 (≈ 3.56 µM) | 64 (≈ 14.2 µM) | 32 (≈ 7.12 µM) | > 32 | > 32 |
| CC[C@H](C)[C@H](NC(=O)CN)C(=O)NCC(=O)N[C@@H](C)C(=O)N[C@H](C(=O)N[C@@H](CC(C)C)C(=O)N[C@@H](CCCCN)C(=O)N[C@H](C(=O)N[C@@H](CC(C)C)C(=O)N[C@H](C(=O)N[C@H](C(=O)NCC(=O)N[C@@H](CC(C)C)C(=O)N1CCC[C@H]1C(=O)N[C@@H](C)C(=O)N[C@@H](CC(C)C)C(=O)N[C@H](C(=O)N[C@@H](CO)C(=O)N[C@@H](Cc1c[nH]c2ccccc12)C(=O)N[C@H](C(=O)N[C@@H](CCCCN)C(=O)N[C@@H](CCCNC(=N)N)C(=O)N[C@@H](CCCCN)C(=O)N[C@@H](CCCNC(=N)N)C(=O)N[C@@H](CCC(N)=O)C(=O)N[C@@H](CCC(N)=O)C(N)=O)[C@@H](C)CC)[C@@H](C)CC)[C@@H](C)O)[C@@H](C)O)C(C)C)C(C)C | – | – | inactive | inactive | – | – | – | – | – | – | – | – | – | – | – | – | – | – | – | – |
| CCCCCCC/C=C/Cn1cncc1C[C@H](NC(=O)[C@@H](N)CCCNC(=N)N)C(=O)N[C@@H](CCCNC(=N)N)C(N)=O | – | – | – | – | 32 | 16 | 64 | 64 | 64 | > 64 | 16 (≈ 26.5 µM) | > 256 | 8 (≈ 13.2 µM) | 4 (≈ 6.61 µM) | 4 (≈ 6.61 µM) | 64 (≈ 106 µM) | 32 (≈ 52.9 µM) | 32 (≈ 52.9 µM) | 16 (≈ 26.5 µM) | 16 (≈ 26.5 µM) |
